Results reported in patent publication US10952992B2, “Methods of treating intraocular pressure with activators of Tie-2” (Aerpio Pharmaceuticals, Inc., priority 2015, dated 2021).
“And” between values parts separate entries of the source, which are not always exact repeats. Equal values may be shown once. Where a name gives a salt, the structure may show the parent alone.

Assays:
[1] = Example 2 vitreous humor concentrations; format: in vivo, male New Zealand White rabbits
Method: To measure the concentration of Compound 1 in plasma and ocular tissues following topical ocular, subcutaneous, and intravitreal administration, New Zealand White rabbits were administered Compound 1, and plasma and ocular samples were collected at pre-determined time points. Compound 1 formulations were prepared fresh on each day of dosing.
Ocular tissue samples from both eyes of each animal were collected and weights were recorded. Plasma and ocular tissue sample concentrations of Compound 1 were determined by LC-MS/MS.
Animals were anesthetized for ocular (topical) and intravitreal dosing following the 12IA7 IACUC protocol. Each rabbit received a bolus dose of test formulation either via topical ocular administration 3 times daily on Days 1 and 2 (at 0, 6, and 12 hours), and once on Day 3 (at 0 hours) into both eyes; via intravitreal administration into both eyes once on Day 1 (at 0 hours); or via subcutaneous administration 2 times daily on Days 1 and 2 (at 0 and 8 hours) and once daily on Day 3 (at 0 hours). Doses were given within an approximately 1 hour window each day where applicable.
On Day 1, for intravitreal administration, or on Day 3, for topical ocular and subcutaneous administration, at the appropriate ocular tissue collection time points, animals were euthanized and both eyes were enucleated immediately. Following enucleation, each eye was rinsed with phosphate-buffered saline. Ocular tissue samples from both eyes of each animal were collected at predetermined time points and weights were recorded. All the samples were frozen immediately on dry ice, and stored at −60° C. to −80° C. pending bioanalysis.
An LC-MS/MS method was developed for the determination of Compound 1 in rabbit aqueous tissues (plasma, aqueous and vitreous humor) and solid ocular tissue samples. A pre-study standard curve was analyzed to determine the specificity, range, and lower limit of quantitation of the method. Plasma and tissue homogenate study samples were extracted and analyzed. All the samples were treated identically to the standards.
One eight-point standard curve was used in each analytical batch. To be accepted, each batch must have had at least five of eight standards with accuracy within ±20% of nominal, except at the lower limit of quantification (LLOQ), where ±25% was acceptable.

[2] = tested on: intraocular pressure in normotensive New Zealand White rabbits; test: Example 3 intraocular pressure after repeated topical and subcutaneous administration (pneumotonometer); format: in vivo
Method: To measure the tolerability and effect of Compound 1 (sodium salt) on intraocular pressure following repeated topical and subcutaneous administration, normotensive New Zealand White rabbits were treated with Compound 1 (sodium salt). Animals were acclimated 1 to 2 times per day to the intraocular pressure (IOP) measurement procedures prior to initiation of the study to determine baseline IOP levels. IOP acclimation was performed in the two weeks prior to study start for a total of 5 days. Animals with unacceptable IOP values were excluded from the study. Prior to taking all IOP measurements, 1 to 2 drops of a 0.5% proparacaine solution were applied to the eye as a topical anesthetic. OP measurements were performed with a pneumotonometer. Test and control formulations were administered to the animals once or twice daily topically into both eyes or subcutaneously starting on Day 1 according to TABLE 20 and TABLE 21 below. PM dosing, where applicable, was performed ˜8 hours after AM dosing. IOP measurements were performed twice (AM and PM) at baseline (prior to the start of dosing), twice (AM and PM) on Days 1 and 7, and once daily (AM) on Days 2-6 and Day 8. Prior to taking all IOP measurements, 1 to 2 drops of a 0.5% proparacaine solution were applied to the eye as a topical anesthetic. IOP measurements were performed with a pneumotonometer. AM IOP measurements were performed 2 hours after AM dosing; the only exceptions were Day 8 AM measurements, which were performed 24 hours after the final dose. PM IOP measurements were performed ˜5 hours (baseline and Day 1) or ˜4 hours (Day 7) after AM IOP measurements, prior to PM dosing, with at least 15 minutes elapsing between anesthetic application for PM IOP measurements and PM dosing. The final round of slit-lamp examinations was performed on Day 8.

[3] = Group 3 (subcutaneous 5 mg/kg/dose, suspension), 0.5 hr
[4] = Group 3 (subcutaneous 5 mg/kg/dose, suspension), 2.0 hr, BLOQ = below 0.2 ng/mL
[5] = Group 5 (intravitreal 2.5 mg/eye, suspension), 6.0 hr
[6] = Group 5 (intravitreal 2.5 mg/eye, suspension), 24 hr
[7] = Group 5 (intravitreal 2.5 mg/eye, suspension), 48 hr
[8] = Group 1 (topical ocular 1.2 mg/eye), 0.5 hr
[9] = Group 1 (topical ocular 1.2 mg/eye), 1.0 hr
[10] = Group 1 (topical ocular 1.2 mg/eye), 2.0 hr
[11] = Group 1 (topical ocular 1.2 mg/eye), 4.0 hr
[12] = Group 2 (subcutaneous 5 mg/kg/dose, solution), 0.5 hr
[13] = Group 2 (subcutaneous 5 mg/kg/dose, solution), 1.0 hr
[14] = Group 2 (subcutaneous 5 mg/kg/dose, solution), 2.0 hr, BLOQ = below 0.2 ng/mL
[15] = Group 2 (subcutaneous 5 mg/kg/dose, solution), 4.0 hr, BLOQ = below 0.2 ng/mL
[16] = Group 4 (intravitreal 2.5 mg/eye, solution), 6.0 hr
[17] = Group 4 (intravitreal 2.5 mg/eye, solution), 24 hr
[18] = Group 4 (intravitreal 2.5 mg/eye, solution), 48 hr
[19] = Group 4 (intravitreal 2.5 mg/eye, solution), 72 hr

COC(=O)N[C@@H](Cc1ccccc1)C(=O)N[C@@H](Cc1ccc(NS(=O)(=O)O)cc1)c1csc(-c2cccs2)n1 [Compound 1 free acid]
vitreous humor Average Conc. [1, 3]: 0.40 ng/g | vitreous humor Conc. OS [1, 3]: 0.227 ng/mL | vitreous humor Average Conc. ([1]; Group 3 (subcutaneous 5 mg/kg/dose, suspension), 1.0 hr): 0.41 ng/g | vitreous humor Conc. OS ([1]; Group 3 (subcutaneous 5 mg/kg/dose, suspension), 1.0 hr, BLOQ = below 0.2 ng/mL): BLOQ | vitreous humor Conc. OD [1, 4]: BLOQ | vitreous humor Conc. OS [1, 4]: BLOQ | vitreous humor Average Conc. ([1]; Group 3 (subcutaneous 5 mg/kg/dose, suspension), 4.0 hr): 0.41 ng/g | vitreous humor Conc. OD ([1]; Group 3 (subcutaneous 5 mg/kg/dose, suspension), 4.0 hr, BLOQ = below 0.2 ng/mL): BLOQ | Average Peak Concentration, Vitreous Humor ([1]; Group 3: subcutaneous 5 mg/kg/dose, suspension): 0.40 ng/g | vitreous humor Average Conc. [1, 5]: 479750 ng/g | vitreous humor Conc. OD [1, 5]: 592000 ng/mL and 432000 ng/mL | vitreous humor Average Conc. [1, 6]: 408750 ng/g | vitreous humor Conc. OD [1, 6]: 296000 ng/mL and 491000 ng/mL | vitreous humor Conc. OS [1, 6]: 528000 ng/mL and 320000 ng/mL | vitreous humor Average Conc. [1, 7]: 97800 ng/g | vitreous humor Conc. OD [1, 7]: 75900 ng/mL and 68300 ng/mL | vitreous humor Conc. OS [1, 7]: 148000 ng/mL and 99000 ng/mL | vitreous humor Average Conc. ([1]; Group 5 (intravitreal 2.5 mg/eye, suspension), 72 hr): 65350 ng/g | Average Peak Concentration, Vitreous Humor ([1]; Group 5: intravitreal 1.54 mg/kg/dose, suspension): 479750 ng/g

COC(=O)N[C@@H](Cc1ccccc1)C(=O)N[C@@H](Cc1ccc(NS(=O)(=O)O)cc1)c1csc(-c2cccs2)n1 [Compound 1 sodium salt]
reduction in IOP values compared to vehicle control ([2]; 10 mg/kg subcutaneous): slightly more consistent | lower IOP values compared to Group 1 (Vehicle) ([2]; Group 2: 0.45 mg/eye topical BID, over the course of dosing): not | IOP values compared to Group 1 (Vehicle) ([2]; Group 3: 1.2 mg/eye topical BID, over the course of dosing): lower IOP values | IOP values compared to Group 1 (Vehicle) ([2]; Group 4: 1.2 mg/eye topical QD, over the course of dosing): lower IOP values | IOP values compared to Group 1 (Vehicle) ([2]; Group 5: 10 mg/kg subcutaneous BID, early part of the study, difference decreased towards the end): Lower IOP values | apparent reduction in intraocular pressure values ([2]; Groups 3 and 4 (1.2 mg/eye topical BID, QD), Day 7 and Day 8 (24 hours after the end of dosing)): persisted | effect on intraocular pressure ([2]; topical 1.2 mg/eye, QD or BID): reduce intraocular pressure | vitreous humor Average Conc. [1, 8]: 0.61 ng/g | vitreous humor Conc. OD [1, 8]: 0.549 ng/mL | vitreous humor Conc. OS [1, 8]: 0.528 ng/mL and 0.507 ng/mL | vitreous humor Average Conc. [1, 9]: 2.09 ng/g | vitreous humor Conc. OD [1, 9]: 1.97 ng/mL and 3.28 ng/mL | vitreous humor Average Conc. [1, 10]: 3.33 ng/g | vitreous humor Conc. OD [1, 10]: 1.14 ng/mL | vitreous humor Conc. OS [1, 10]: 0.950 ng/mL | vitreous humor Average Conc. [1, 11]: 4.01 ng/g | vitreous humor Conc. OD [1, 11]: 1.09 ng/mL and 0.551 ng/mL | vitreous humor Conc. OS [1, 11]: 2.20 ng/mL | Average Peak Concentration, Vitreous Humor ([1]; Group 1: topical ocular 0.70 mg/kg/dose, solution): 0.61 ng/g | vitreous humor Average Conc. [1, 12]: 0.83 ng/g | vitreous humor Conc. OD [1, 12]: 0.77 ng/mL and 0.537 ng/mL | vitreous humor Conc. OS [1, 12]: 1.03 ng/mL and 0.981 ng/mL | vitreous humor Average Conc. [1, 13]: 0.45 ng/g | vitreous humor Conc. OD [1, 13]: 0.252 ng/mL and 0.442 ng/mL | vitreous humor Conc. OD [1, 14]: BLOQ | vitreous humor Conc. OS [1, 14]: BLOQ | vitreous humor Conc. OD [1, 15]: BLOQ | vitreous humor Conc. OS [1, 15]: BLOQ | Average Peak Concentration, Vitreous Humor ([1]; Group 2: subcutaneous 5 mg/kg/dose, solution): 0.83 ng/g | vitreous humor Average Conc. [1, 16]: 988500 ng/g | vitreous humor Conc. OD [1, 16]: 1450000 ng/mL and 1480000 ng/mL | vitreous humor Conc. OS [1, 16]: 592000 ng/mL and 432000 ng/mL | vitreous humor Average Conc. [1, 17]: 349500 ng/g | vitreous humor Conc. OD [1, 17]: 438000 ng/mL and 406000 ng/mL | vitreous humor Conc. OS [1, 17]: 295000 ng/mL and 259000 ng/mL | vitreous humor Average Conc. [1, 18]: 82000 ng/g | vitreous humor Conc. OD [1, 18]: 85200 ng/mL and 68600 ng/mL | vitreous humor Conc. OS [1, 18]: 82300 ng/mL and 91900 ng/mL | vitreous humor Average Conc. [1, 19]: 13450 ng/g | vitreous humor Conc. OD [1, 19]: 14500 ng/mL and 11700 ng/mL | vitreous humor Conc. OS [1, 19]: 13500 ng/mL and 14100 ng/mL | Average Peak Concentration, Vitreous Humor ([1]; Group 4: intravitreal 1.55 mg/kg/dose, solution): 988500 ng/g | vitreous humor concentrations vs free acid (FIG. 11) ([1]; intravitreal administration, 6 hr post-dosing): higher vitreous humor concentrations | vitreous humor concentrations vs free acid (FIG. 10) ([1]; subcutaneous administration, 0.5 hr and 1 hr post-dosing): increased vitreous humor concentrations | vitreous humor concentrations over time (FIG. 9) ([1]; topical ocular administration): increased vitreous humor concentrations
